The numbers were not newly measured in patent US20050182030A1, “Liquid injectable formulation of disodium pamidronate” (American Pharmaceutical Partners, Inc., priority 2001, published 2005), which cites them from elsewhere.

For series [1] the following is noted: in vivo.
For series [2] the following is noted: liquid formulation.
For series [3] the following is noted: approximately normal ambient conditions.

With `NCCC(O)(P(=O)([O-])O)P(=O)([O-])O.[Na+].[Na+]` [pamidronate, 3-amino-1-hydroxypropane-1,1-diphosphonate disodium], the “Absorption from the gastrointestinal system” value in series [1] was “poor absorption”. For the same compound, the “Stability during long-term storage” value in series [2] is recorded as “unstable/reactive”.

`NCCC(O)(P(=O)(O)O)P(=O)(O)O` [pamidronic acid]: the Solubility in water entry is given as “not soluble in water”.

On to `NCCC(O)(P(=O)([O-])O)P(=O)([O-])O.O.O.O.O.O.[Na+].[Na+]` [pentahydrate, pamidronate disodium pentahydrate], for which the Stability to storage entry in series [3] was “stable to storage”.
